{
  "source": "patent EP4631937A1",
  "about": "“CRYSTALLINE FORM OR AMORPHOUS FORM OF OXOISOINDOLE-5-FORMAMIDE COMPOUND OR SALT AND SOLVATE THEREOF” (Hangzhou Glubio Pharmaceutical Co., Ltd., priority 2022, dated 2024)",
  "key": {"[1]": {"test": "Simulated tableting experiment (XRPD after pressing)", "format": "physicochemical", "experimental": "About 10 mg of crystalline form G was weighed and pressed at 2 MPa, 5 MPa or 10 MPa for 5 min. The crystal transformation and the change of crystallinity were investigated by XRPD characterization."}, "[2]": {"test": "Hygroscopicity test by DVS, with XRPD after DVS", "format": "physicochemical", "conditions": "25 °C, listed as Crystalline form G", "experimental": "• DVS Intrinsic Dynamic Vapor Sorption Instrument • Gas flow rate 200 sccm, furnace temperature 25 °C.\nThe hygroscopicity and dehydration behavior of crystalline form B was investigated by DVS. Humidity program: 25 °C, 40-0-95-0-40% RH, dm/dt 0.002, shortest equilibrium time was 60 min, and longest equilibrium time was 360 min. XRPD was also performed on the samples after DVS test to determine whether the crystal transformation occurred.\nThe hygroscopicity and dehydration behavior of crystalline form E was investigated by DVS. Humidity program: 25 °C, 40-0-95-0-40% RH, dm/dt 0.002, shortest equilibrium time was 60 min, and longest equilibrium time was 360 min. XRPD was also performed on the samples after DVS test to determine whether the crystal transformation occurred.\nThe hygroscopicity and dehydration behavior of crystalline form G was investigated by DVS. Humidity program: 25 °C, 40-0-95-0-40% RH, dm/dt 0.002, shortest equilibrium time was 60 min, and longest equilibrium time was 360 min. XRPD was also performed on the samples after DVS test to determine whether the crystal transformation occurred."}, "[3]": {"test": "Pharmacokinetic evaluation in mice by gavage", "format": "in vivo", "parameters": "AUClast /D: unit not given here", "conditions": "CD1 male mice, oral, 30 mg/kg, 25 mM citrate buffer (pH 3) containing 5% Tween 80", "experimental": "CD1 male mice were selected and the test compound was administered orally. The drug concentration in plasma at different time points was quantitatively determined by LC/MS/MS to evaluate the pharmacokinetic characteristics of the test drug in mice.\nExperimental materials: CD1 Mouse (male, 20-30 g, 6-8 weeks old, Zhejiang Weitong Lihua).\nBlood was collected from the dorsal plantar vein at 0.25 h, 0.5 h, 1 h, 2 h, 4 h, 6 h, 8 h and 24 h after administration, placed in an anticoagulant tube containing EDTA-K2 and mixed, and centrifuged at 4°C and 4000 g for 5 minutes. The drug concentration in blood was determined by LC-MS/MS, and the relevant pharmacokinetic parameters were calculated by the non-compartmental linear/log trapezoidal method using Phoenix WinNonlin 6.3 pharmacokinetic software."}, "[4]": {"test": "Stability test of crystalline forms (open container at 25°C/92% RH and 40°C/75% RH, sealed container at 60°C, 13 days; XRPD, HPLC, colour)", "format": "physicochemical", "conditions": "initial, before storage; listed as Crystalline form G", "experimental": "Placed in a open container at 25°C/92% RH and 40°C/75% RH for 13 days, respectively, or in a sealed container at 60°C for 13 days. […]\n(§1) Placed in a open container at 25 °C/92% RH and 40 °C/75% RH for 13 days, respectively, or in a sealed container at 60 °C for 13 days. […]\nas §1"}, "[5]": {"test": "Stability test of crystalline forms (open container at 25°C/92% RH and 40°C/75% RH, sealed container at 60°C, 13 days; XRPD, HPLC, colour)", "format": "physicochemical", "conditions": "Solid, 1 week, listed as Crystalline form G; for Chemical purity / Chiral purity: HPLC/SFC"}},
  "data": [
    {"compound": "O=C1CC[C@H](N2Cc3cc(C(=O)N[C@H](c4ccc(Cl)cn4)C4CCC4)ccc3C2=O)C(=O)N1", "note": "[crystalline form G, N-((S)-(5-chloropyridin-2-yl)(cyclobutyl)methyl)-2-((S)-2,6-dioxopiperidin-3-yl)-1-oxoisoindoline-5-carboxamide]", "values": [
      {"measurement": "Notes (change of crystallinity)", "setting": "[1]; pressed at 2 MPa for 5 min", "result": "No significant change in crystallinity"},
      {"measurement": "XRPD", "setting": "[1]; pressed at 2 MPa for 5 min", "result": "Crystalline form G, see Figure 21a"},
      {"measurement": "Notes (change of crystallinity)", "setting": "[1]; pressed at 5 MPa for 5 min", "result": "No significant change in crystallinity"},
      {"measurement": "XRPD", "setting": "[1]; pressed at 5 MPa for 5 min", "result": "Crystalline form G, see Figure 21a"},
      {"measurement": "Notes (change of crystallinity)", "setting": "[1]; pressed at 10 MPa for 5 min", "result": "No significant change in crystallinity"},
      {"measurement": "XRPD", "setting": "[1]; pressed at 10 MPa for 5 min", "result": "Crystalline form G, see Figure 21a"},
      {"measurement": "change in crystallinity", "setting": "[1]; tableted at 2 MPa, 5 MPa and 10 MPa pressures", "result": "no significant change in crystallinity was observed"},
      {"measurement": "1st adsorption weight change percentage", "setting": "[2]; relative humidity 0%", "result": 0.0, "unit": "%"},
      {"measurement": "1st desorption weight change percentage", "setting": "[2]; relative humidity 0%", "result": 0.0, "unit": "%"},
      {"measurement": "1st adsorption weight change percentage", "setting": "[2]; relative humidity 10%", "result": 0.0, "unit": "%"},
      {"measurement": "1st desorption weight change percentage", "setting": "[2]; relative humidity 10%", "result": 0.1, "unit": "%"},
      {"measurement": "2nd adsorption weight change percentage", "setting": "[2]; relative humidity 10%", "result": 0.0, "unit": "%"},
      {"measurement": "2nd desorption weight change percentage", "setting": "[2]; relative humidity 10%", "result": 0.1, "unit": "%"},
      {"measurement": "1st adsorption weight change percentage", "setting": "[2]; relative humidity 20%", "result": 0.0, "unit": "%"},
      {"measurement": "1st desorption weight change percentage", "setting": "[2]; relative humidity 20%", "result": 0.1, "unit": "%"},
      {"measurement": "2nd adsorption weight change percentage", "setting": "[2]; relative humidity 20%", "result": 0.0, "unit": "%"},
      {"measurement": "2nd desorption weight change percentage", "setting": "[2]; relative humidity 20%", "result": 0.1, "unit": "%"},
      {"measurement": "1st adsorption weight change percentage", "setting": "[2]; relative humidity 30%", "result": 0.1, "unit": "%"},
      {"measurement": "1st desorption weight change percentage", "setting": "[2]; relative humidity 30%", "result": 0.2, "unit": "%"},
      {"measurement": "2nd adsorption weight change percentage", "setting": "[2]; relative humidity 30%", "result": 0.1, "unit": "%"},
      {"measurement": "2nd desorption weight change percentage", "setting": "[2]; relative humidity 30%", "result": 0.2, "unit": "%"},
      {"measurement": "1st adsorption weight change percentage", "setting": "[2]; relative humidity 40%", "result": 0.1, "unit": "%"},
      {"measurement": "1st desorption weight change percentage", "setting": "[2]; relative humidity 40%", "result": 0.3, "unit": "%"},
      {"measurement": "2nd adsorption weight change percentage", "setting": "[2]; relative humidity 40%", "result": 0.1, "unit": "%"},
      {"measurement": "2nd desorption weight change percentage", "setting": "[2]; relative humidity 40%", "result": 0.3, "unit": "%"},
      {"measurement": "1st adsorption weight change percentage", "setting": "[2]; relative humidity 50%", "result": 0.2, "unit": "%"},
      {"measurement": "2nd desorption weight change percentage", "setting": "[2]; relative humidity 50%", "result": 0.3, "unit": "%"},
      {"measurement": "1st adsorption weight change percentage", "setting": "[2]; relative humidity 60%", "result": 0.2, "unit": "%"},
      {"measurement": "2nd desorption weight change percentage", "setting": "[2]; relative humidity 60%", "result": 0.4, "unit": "%"},
      {"measurement": "1st adsorption weight change percentage", "setting": "[2]; relative humidity 70%", "result": 0.3, "unit": "%"},
      {"measurement": "2nd desorption weight change percentage", "setting": "[2]; relative humidity 70%", "result": 0.4, "unit": "%"},
      {"measurement": "1st adsorption weight change percentage", "setting": "[2]; relative humidity 80%", "result": 0.3, "unit": "%"},
      {"measurement": "2nd desorption weight change percentage", "setting": "[2]; relative humidity 80%", "result": 0.5, "unit": "%"},
      {"measurement": "1st adsorption weight change percentage", "setting": "[2]; relative humidity 90%", "result": 0.5, "unit": "%"},
      {"measurement": "2nd desorption weight change percentage", "setting": "[2]; relative humidity 90%", "result": 0.5, "unit": "%"},
      {"measurement": "1st adsorption weight change percentage", "setting": "[2]; relative humidity 95%", "result": 0.7, "unit": "%"},
      {"measurement": "2nd desorption weight change percentage", "setting": "[2]; relative humidity 95%", "result": 0.7, "unit": "%"},
      {"measurement": "XRPD after DVS test", "setting": "[2]; after 40-0-95-0-40% RH", "result": "The crystal form did not change, see Figure 20b"},
      {"measurement": "moisture adsorbed (DVS)", "setting": "[2]; under 40%RH-95%RH", "result": "0.6% of moisture was adsorbed under 40%RH-95%RH, see Figure 20a"},
      {"measurement": "AUClast /D", "setting": "[3]; dose-normalised", "result": "306 ± 35"},
      {"measurement": "AUC(0-inf)", "setting": "[3]; mouse, plasma", "result": "10700 ± 2100", "unit": "ng·h/mL"},
      {"measurement": "AUC(0-t)", "setting": "[3]; mouse, plasma", "result": "9170 ± 1050", "unit": "ng·h/mL"},
      {"measurement": "Cmax", "setting": "[3]; mouse, plasma", "result": "1370 ± 365", "unit": "ng/mL"},
      {"measurement": "Tmax", "setting": "[3]; mouse, plasma", "result": 25.2, "unit": "min"},
      {"measurement": "half-life", "setting": "[3]; mouse, plasma", "result": 522, "unit": "min"},
      {"measurement": "Initial purity (HPLC/SFC) Chemical purity", "setting": "[4]", "result": 99.7, "unit": "%"},
      {"measurement": "Initial purity (HPLC/SFC) Chiral purity", "setting": "[4]", "result": 97.6, "unit": "%"},
      {"measurement": "Chemical purity", "setting": "[5]; 25 °C/92% RH, open container", "result": 99.4, "unit": "%"},
      {"measurement": "Chiral purity", "setting": "[5]; 25 °C/92% RH, open container", "result": 97.8, "unit": "%"},
      {"measurement": "Solid (XRPD)", "setting": "[5]; 25 °C/92% RH, open container", "result": "The crystal form did not change, see Figure 17c"},
      {"measurement": "Chemical purity", "setting": "[5]; 40 °C/75% RH, open container", "result": 99.5, "unit": "%"},
      {"measurement": "Chiral purity", "setting": "[5]; 40 °C/75% RH, open container", "result": 97.8, "unit": "%"},
      {"measurement": "Solid (XRPD)", "setting": "[5]; 40 °C/75% RH, open container", "result": "The crystal form did not change, see Figure 17c"},
      {"measurement": "Chemical purity", "setting": "[5]; 60 °C, sealed container", "result": 99.5, "unit": "%"},
      {"measurement": "Chiral purity", "setting": "[5]; 60 °C, sealed container", "result": 97.7, "unit": "%"},
      {"measurement": "Solid (XRPD)", "setting": "[5]; 60 °C, sealed container", "result": "The crystal form did not change, see Figure 17c"}
    ]}
  ]
}
